Test results from patent US10653658B2, “Biofilm inhibiting compositions enhancing weight gain in livestock” (Akeso Biomedical, Inc., priority 2015, dated 2020).

How the values were obtained:
Assay type in all cases: in vivo
Campylobacter jejuni = experiment: Campylobacter carriage in chickens after oral challenge, caecal contents at day 35 (Example 9); conditions: 340 μM in the drinking water; oral challenge at day 14
Protocol: A study was performed to evaluate reduction of Campylobacter carriage in chickens using ferric lactate in one treatment group, and FeQ (Q-PLEX) in a second treatment group. A third treatment group served as a positive control. The ferric lactate and FeQ were administered to the treatment groups at a concentration of 340 μM in the drinking water. Each treatment group comprised 12 birds per pen. All three treatment groups were orally challenged with 10^5 cfu of Campylobacter jejuni at day 14 of the trial. At day 35 all birds were euthanized, and quantitative bacteriology performed on caecal contents.

Salmonella = Salmonella cfu/g of caeca at day 42 (Example 10); conditions: in feed
Protocol: (§1) A study was performed to evaluate growth promotion and reduction of Campylobacter carriage using FeTyr in Ross 308 male broilers with 7 treatment groups. Each treatment group comprised eight replicates of 10 birds per pen (80 birds/treatment group), with 2 control groups and […]. All the test groups and both of the control groups were exposed at day 20 of the trial to dirty litter, which tested positive for Campylobacter. This method was used to provide a more natural method to Campylobacter challenge the birds. Thus there were two positive controls where each treatment group was challenged with Campylobacter, and five treatment groups that were all challenged with Campylobacter. The total number of birds used in the 7 treatment groups was 560.
(§2) At day 20, litter, which was naturally Campylobacter-contaminated, was tested to confirm the presence of Campylobacter, and then added (approximately 2 kg/pen) to the litter in all pens. At day 42, caecal samples were taken and tested for Campylobacter, E. coli and Salmonella enumeration.

Campylobacter = Campylobacter carriage in chickens, cfu/g of droppings and caeca at day 42 (Example 1)
Protocol: A study was performed to evaluate growth promotion and reduction of Campylobacter carriage using FeQ and FeTyr in Ross 308 male broilers with 7 treatment groups. Each treatment group comprised four replicates of 10 birds per pen (40 birds/treatment group and 4 pens of 10 birds/treatment group), with 2 control groups and 5 test groups. All the test groups and one of the control groups were exposed at day 20 of the trial to dirty litter, which tested positive for Campylobacter. This method was used to provide a more natural method to Campylobacter challenge the birds. Thus there was a positive control where one treatment group was challenged with Campylobacter and one negative control group where the birds were not challenged, and five treatment groups that were all challenged with Campylobacter. The total number of birds used in the 7 treatment groups was 280. Treatment group 1 was a negative control where birds just received the commercial feed, and were not challenged with dirty litter containing Campylobacter. Treatment group 2 was the positive control where the birds received the commercial feed, and were challenged with dirty litter containing Campylobacter at day 20. Treatment group 3 received 0.22 g/L of FeQ in their drinking water and 0.22 g/Kg FeQ in their feed during the entire trial, and was challenged with dirty litter containing Campylobacter at day 20. Treatment group 5 received 0.22 g/L of FeQ in their drinking water during the entire trial, and was challenged with dirty litter containing Campylobacter at day 20. Treatment group 6 received 0.22 g/kg FeQ in their feed during the entire trial, and was challenged with dirty litter containing Campylobacter at day 20. Treatment group 7 received 0.022 g/L FeQ in their drinking water during the entire trial, and was challenged with dirty litter containing Campylobacter at day 20. Treatment group 8 received 0.02 g/L FeTyr in their drinking water during the entire trial, and was challenged with dirty litter containing Campylobacter at day 20. The FeTyr was pre-dissolved in DMSO, and diluted to provide a solution of 0.02 g/L of FeTyr in water. (An additional treatment group 4 was terminated due to solubility issues.)
Prior to challenging the chickens with dirty litter containing Campylobacter at day 20, each pen was tested for Campylobacter using cloacal swabs. All pens tested negative for Campylobacter prior to the challenge. At day 20, litter, which was naturally Campylobacter-contaminated, was tested to confirm the presence of Campylobacter, and then added (approximately 2 kg/pen) to the litter in all pens except in pens for treatment group 1 (the negative control). At day 28, the pen litter was sampled to confirm the presence or absence of Campylobacter. At day 41 and 42, caecal samples were taken from 3 birds per pen (12 birds per treatment group) and tested for Campylobacter enumeration. At day 42, digesta, fecal samples, and caecal content was taken from all birds, and pooled per pen. Two birds per pen were also taken from treatment groups 1-3, euthanized, and blood samples taken. Samples were analyzed for blood chemistry, including analysis for alkaline phosphatase, aspartate amino transferase, alanine amino transferase, gamma-glutamyl transferase, lactate dehydrogenase, total protein, albumin, globulin, amylase and glucose.

E. coli = E. coli cfu/g of caeca at day 42 (Example 10)
Protocol: as §1, §2

SMILES: O=C([O-])C1(O)CC(O)C(O)C(O)C1.O=C([O-])C1(O)CC(O)C(O)C(O)C1.O=C([O-])C1(O)CC(O)C(O)C(O)C1.[Fe+3] (centres unmarked) [FeQ, Ferric Quinate]
- levels of Campylobacter in caeca at day 35 compared with positive control (FIG. 11) (Campylobacter jejuni): lower levels of Campylobacter in their caeca
- Salmonella cfu/g of caeca at day 42 (FIG. 15) (Salmonella): positive effect on reducing Campylobacter infection
- Campylobacter cfu/g of bird droppings at day 42 (FIG. 3), low concentration (Campylobacter; 0.022 g/L FeQ in water, treatment group 7, considered likely experimental error): less of an effect than the other treatment groups
- Campylobacter cfu/g of caeca samples at day 42 (FIG. 4), low concentration (Campylobacter; treatment group 7: 0.022 g/L FeQ in water): highly beneficial effect
- Campylobacter cfu/g of caeca samples at day 42 compared with positive control (FIG. 4) (Campylobacter; treatment groups 3 and 5-8): positive effect on reducing Campylobacter infection
- Campylobacter cfu/g of bird droppings at day 42 compared with positive control (FIG. 3) (Campylobacter; treatment groups 3 and 6-8): positive effect on reducing Campylobacter infection
- E. coli cfu/g of caeca at day 42 (FIG. 16) (E. coli; in feed): positive effect on reducing Campylobacter infection
- levels of E. coli in poultry upon treatment (E. coli; poultry data): lower levels of E. coli
